These results are taken from patent US9616033B2, “Selective metabolic approach to increasing oral bioavailability of phenylephrine and other phenolic bioactivities” (VIRGINIA COMMONWEALTH UNIVERSITY, priority 2011, dated 2017).

For data set [1], the system named is LS180 cells. The data set can be described thus: Inhibition of resveratrol metabolism (disappearance) in LS180 cells. Type of data set: cell-based, human. The settings on record: for activity at 100 µM: Homo sapiens, read-out: Extent of RES Disappearance (as % of control); for inhibition of resveratrol metabolism (in words): 4 hours.
Data set [2] concerns LS180 cells. The data set can be described thus: Inhibition of 2-methoxyestradiol metabolism (disappearance) in LS180 cells. Type of data set: cell-based, human. The conditions noted are these: for activity at 100 µM: Homo sapiens, LS180, 1 h.
Data set [3] deals with human LS180 intestinal cells. Briefly: Inhibition of phenylephrine (PE) metabolism (PE disappearance) in LS180 cells. Type of data set: cell-based. The conditions noted are these: for activity at 100 µM: Homo sapiens; for effect on PE disappearance / PE metabolism (in words): inhibitor 100 μM. How it is done:
The inhibitors which can be used in the practice of the invention are wide ranging. […] The LS180 model provides an inexpensive method to imitate the human intestine, with regards to PE metabolism. […] For the LS180 experiments, LS180 cells are seeded at the concentration of 1.9×10^5 cells/ml in 12-well plate. […] After incubation, medium is removed and stored at −80° C. until analysis. The metabolic reactions are quenched by placing 12-well plate on ice and quickly rinsing each well. The cell extraction of metabolites is carried out with 1 ml 2% acetic acid solution in methanol. Cells are scraped and collected in centrifuge tubes. The suspension is mixed for 2-3 min and centrifuged at 18,000 rcf for 5 min. Supernatants (800 μl) are collected. After scraping, each well is washed twice as above. The washing solution is collected with the supernatant and dried under reduced pressure. The residue is re-suspended in 35 μl water and analyzed by HPLC. […] The data are processed with one-way ANOVA followed by Dunnett's post test; * indicates p<0.05.
Phenolic compounds were selected from FDA's “GRAS” list, approved food additives, or dietary supplements. LS180 cells were used as a model to test the effect of these phenolic compounds on the pre-systemic sulfation of PE. The cells were incubated in 0.5 ml medium with PE (50 μM)±inhibitor (100 μM) overnight. Extracellular buffer was collected and cells were extracted with methanol. PE was determined by reversed-phase HPLC with fluorescence detection. The formation of PE-sulfate was analyzed by LC-MS/MS. Results (n=3 per group) were analyzed by one-way ANOVA with Dunnett's post-test (p<0.05; Prism 5).

Data set [4] in a line: Biopharmaceutical Classification System (BCS) classification. The settings on record: high permeability, high aqueous solubility. The source says:
Interpreting the data published by Hengstmann, the mass balance of total radioactivity excreted into urine following an oral dose was 92% of what was recovered following an intravenous dose, so that phenylephrine would therefore be considered a “high permeability” compound. (Hengstmann and Goronzy, 1982; Amidon et al., 1995) Combining this with its high aqueous solubility, phenylephrine would be classified as a Biopharmaceutical Classification System (BCS) class 1 compound. […] (Amidon et al., 1995; Wu and Benet, 2005) Therefore, to improve the oral bioavailability of PE, a metabolism-targeted approach would be most useful.

For data set [5] the following is noted: cited from earlier work.
For data set [6] the following is noted: Fenaroli, 2010; cited from earlier work.
The mark [7] stands for this setting: resveratrol 25 μM, inhibitor 100 μM, LS180 cells, incubation 4 hr.
Where [8] appears, read: 2-ME 10 μM, inhibitor 100 μM, incubation time 1 hr (table), read-out: Extent of 2-ME Disappearance (as % of control).
[9] abbreviates: PE 50 μM, inhibitors total 100 μM (ascorbic acid 1 mM), LS180 cells, incubation 17 hr, read-out: Extent of PE Disappearance (as % of control).
[10] abbreviates: resveratrol 25 μM, inhibitor 100 μM, LS180 cells.
Where [11] appears, read: PE 50 μM ± inhibitor 100 μM, LS180 cells, overnight, n=3, control=503±127 pmol/hr, read-out: extent of disappearance of PE (mean±SD, as % of control).
[12] abbreviates: PE 50 μM, inhibitors total 100 μM, LS180 cells, incubation 17.5 hr, read-out: Extent of PE Disappearance (as % of control).
Setting [13] is: PE 50 μM, LS180 cells, overnight.
The mark [14] stands for this setting: 2-ME 10 μM, inhibitor 100 μM, incubation time 1 hr (table).
[15] abbreviates: PE 50 μM, inhibitors total 100 μM (ascorbic acid 1 mM), LS180 cells, incubation 14 hr, read-out: Extent of PE Disappearance (as % of control).
The mark [16] stands for this setting: PE 50 μM, inhibitors total 100 μM, LS180 cells, incubation 19 hr, read-out: Extent of PE Disappearance (as % of control).

“Also recorded” adds a separate entry of the source. Where two headings read alike, the source gives them in different places.

Regarding `COc1cc(C(=O)O)ccc1O` [vanillic acid], the activity at 100 µM amounted to 103% in the data set on LS180 cells [1] (setting [7]) and 99.1% in the data set on LS180 cells [2] (setting [8]).

`O=C(O)/C=C/c1ccc(O)c(O)c1` [caffeic acid]: the results for the activity at 100 µM in the data set with LS180 cells [1] (setting [7]) and with LS180 cells [2] (setting [8]) were 91.1% and 93.3%, respectively.

For `CCOc1cc(C=O)ccc1O` [ethylvanillin], the activity at 100 µM is 76.5% in data set [3] (setting [9]) and 8.1% in the data set on LS180 cells [1] (setting [7]). Further, the “inhibition of resveratrol metabolism (in words)” value with LS180 cells [1] (setting [10]) is recorded as “greatest extent of inhibition”.

Consider `COc1cc(CCC(C)=O)ccc1O` [zingerone], for which the activity at 100 µM in data set [3] (setting [11]) was 52 ± 25%; in data set [3] (setting [9]) it was 52.4%; in the data set with LS180 cells [1] (setting [7]), 83.7%.

Regarding `COc1cc(/C=C/C(=O)O)ccc1O` [ferulic acid], the activity at 100 µM in the data set with LS180 cells [1] (setting [7]) was 100%; in the data set on LS180 cells [2] (setting [8]), 102%.

For the compound `C[C@@H]1O[C@@H](O[C@H]2[C@H](Oc3cc(O)c4c(c3)O[C@H](c3ccc(O)cc3)CC4=O)O[C@H](CO)[C@@H](O)[C@@H]2O)[C@H](O)[C@H](O)[C@H]1O` [naringin], in data set [3] (setting [12]), the activity at 100 µM is 75.7%.

For the compound `CNC[C@H](O)c1cccc(O)c1` [phenylephrine], the “Biopharmaceutical Classification System (BCS) class” value in data set [4] is given as “class 1”. Also, the “total radioactivity excreted into urine following an oral dose, relative to intravenous dose” value in data set [5] (mass balance, oral vs intravenous, Hengstmann data) is 92%. In addition, in data set [5] (oral), the oral bioavailability is listed as less than 38%.

`C=CCc1ccc(O)c(OC)c1` [eugenol]: the activity at 100 µM turned out to be 133% in data set [3] (LS180, 17.5 h, read-out: Extent of PE Disappearance (as % of control)); 38.3% in the data set with LS180 cells [1] (LS180, 4 h); 21.2% in the data set with LS180 cells [2] (read-out: Extent of 2-ME Disappearance (as % of control), 2-ME 10 μM, inhibitor 100 μM, incubation time 1 hr (table)). In addition, in data set [3] (setting [13]), the “effect on PE disappearance / PE metabolism (in words)” value was “failed to inhibit PE metabolism alone; also recorded: no significant effect on PE disappearance”. Moreover, the “inhibition of resveratrol metabolism (in words)” value with LS180 cells [1] (setting [10]) is “significant inhibition”. For the same compound, the “inhibition of 2ME metabolism (in words)” value in the data set on LS180 cells [2] (2-ME 10 μM, inhibitor 100 μM) is recorded as “Significant inhibition”. Further, the “Extent of 2-ME Disappearance (as % of control)” value (“Extent … (as % of control)” for short) in the data set with LS180 cells [2] (setting [14]) turned out to be 33.9%.

Take `COc1cc(C=O)ccc1O` [vanillin]: the acceptable daily intake in data set [6] is 10 mg/kg/day. In addition, the activity at 100 µM in data set [3] (setting [15]) came out at 90.2%; in the data set with LS180 cells [1] (setting [7]), 44.8%; in the data set on LS180 cells [2] (setting [8]), 51.2%. Further, the “effect on PE disappearance / PE metabolism (in words)” value in data set [3] (setting [13]) is “failed to inhibit PE metabolism alone; also recorded: no significant effect on PE disappearance”. In the data set with LS180 cells [1] (setting [10]), the “inhibition of resveratrol metabolism (in words)” value is given as “significant inhibition”. Further, in the data set with LS180 cells [2] (2-ME 10 μM, inhibitor 100 μM), the “inhibition of 2ME metabolism (in words)” value is on record as “Significant inhibition”. Also, the “Extent … (as % of control)” value in the data set on LS180 cells [2] (setting [14]) is 39.4%.

Turning to `O=c1c(O)c(-c2ccc(O)c(O)c2)oc2cc(O)cc(O)c12` [quercetin], the activity at 100 µM in data set [3] (setting [12]) stood at 48.7%.

As to `O=C(O)C=Cc1ccccc1` [cinnamic acid], in the data set on LS180 cells [1] (setting [7]), the activity at 100 µM was 16.3%. Further, the “inhibition of resveratrol metabolism (in words)” value in the data set on LS180 cells [1] (setting [10]) is recorded as “significant inhibition”.

For `COC(=O)c1ccc(O)cc1` [methylparaben], the figures for the activity at 100 µM (in data set [3] (setting [9]); in the data set with LS180 cells [1] (setting [7])) were 75.9% and 0.4%, respectively. In addition, the “inhibition of resveratrol metabolism (in words)” value in the data set on LS180 cells [1] (setting [10]) is recorded as “greatest extent of inhibition”.

For `O=C(O)c1cc(O)c(O)c(O)c1` [gallic acid], the activity at 100 µM with LS180 cells [2] (setting [8]) is 102%.

Consider `COc1cc(/C=C/C(=O)CC(=O)/C=C/c2ccc(O)c(OC)c2)ccc1O` [curcumin], for which the activity at 100 µM stood at 24 ± 24% in data set [3] (setting [11]) and 24.5% in data set [3] (setting [9]).

Take `O=C(/C=C/C=C/c1ccc2c(c1)OCO2)N1CCCCC1` [piperine]: in the data set with LS180 cells [1] (setting [7]), the activity at 100 µM was 26.4%.

As for `CCCOC(=O)c1ccc(O)cc1` [propylparaben], the activity at 100 µM in data set [3] (setting [15]) was determined as 53.8%; in the data set on LS180 cells [1] (setting [7]), 57.8%; with LS180 cells [2] (setting [8]), 51.7%. Moreover, the “inhibition of resveratrol metabolism (in words)” value in the data set on LS180 cells [1] (setting [10]) is listed as “significant inhibition”. Besides, the “inhibition of 2ME metabolism (in words)” value in the data set with LS180 cells [2] (2-ME 10 μM, inhibitor 100 μM) is on record as “Significant inhibition”. The “Extent … (as % of control)” value in the data set on LS180 cells [2] (setting [14]) is given as 57.7%.

As to `CCCOC(=O)c1cc(O)c(O)c(O)c1` [propyl gallate], the activity at 100 µM in data set [3] (setting [15]) was 114%; in the data set with LS180 cells [1] (setting [7]), 51.2%; in the data set with LS180 cells [2] (setting [8]), 42.8%. Further, the “effect on PE disappearance / PE metabolism (in words)” value in data set [3] (setting [13]) is listed as “no significant effect on PE disappearance”. Also, the “inhibition of resveratrol metabolism (in words)” value with LS180 cells [1] (setting [10]) was “significant inhibition”. For the same compound, the “inhibition of 2ME metabolism (in words)” value in the data set on LS180 cells [2] (2-ME 10 μM, inhibitor 100 μM) is recorded as “Significant inhibition”. Besides, the “Extent … (as % of control)” value in the data set with LS180 cells [2] (setting [14]) was 50.4%.

As to `COc1cc(/C=C/c2ccc(O)cc2)cc(OC)c1` [pterostilbene], the activity at 100 µM is 71 ± 7% in data set [3] (setting [11]) and 70.6% in data set [3] (setting [16]).

In the case of `O=CC=Cc1ccccc1` [cinnamaldehyde], the “Extent … (as % of control)” value in the data set on LS180 cells [2] (setting [14]) is reported as 93.9%. Further, the activity at 100 µM in the data set on LS180 cells [2] (setting [8]) was found to be 87.6%.

As for `COc1cc(/C=C/C(=O)O)cc(OC)c1O` [sinapic acid], the results for the activity at 100 µM with LS180 cells [1] (setting [7]) and with LS180 cells [2] (setting [8]) were 86.1% and 88.1%, respectively.

Take `Oc1ccc(C=Cc2cc(O)cc(O)c2)cc1` [resveratrol]: the results for the activity at 100 µM in data set [3] (setting [11]) and in data set [3] (setting [12]) were 14 ± 48% and 14.2%, respectively.

Consider `CC=Cc1ccc(O)c(OC)c1` [isoeugenol], for which the activity at 100 µM was found to be 74 ± 8% in data set [3] (setting [11]) and 73.9% in data set [3] (setting [16]).
